Common to all, as to assay: Eurofins kinase panel
Common to all, as to format: biochemical
Settings in all cases: read-out: Inhibition rate (%)

One assay concerns the target T1, JAK1(h) (Homo sapiens, UniProt P23458).
T1 construct: purchased Eurofins (KinaseProfiler)

The target in a further assay is T2, MAPKAP-K3(h) (Homo sapiens, UniProt Q16644).
T2 construct: purchased Eurofins (KinaseProfiler)

A further assay concerns the target T3, PI3 Kinase (p120γ)(h) (Homo sapiens, UniProt P48736).
T3 construct: purchased Eurofins (KinaseProfiler)

In another assay the target is T4, PI3KC2γ(h) (Homo sapiens, UniProt O75747).
T4 construct: purchased Eurofins (KinaseProfiler)
T4 sequence (O75747 1-1486): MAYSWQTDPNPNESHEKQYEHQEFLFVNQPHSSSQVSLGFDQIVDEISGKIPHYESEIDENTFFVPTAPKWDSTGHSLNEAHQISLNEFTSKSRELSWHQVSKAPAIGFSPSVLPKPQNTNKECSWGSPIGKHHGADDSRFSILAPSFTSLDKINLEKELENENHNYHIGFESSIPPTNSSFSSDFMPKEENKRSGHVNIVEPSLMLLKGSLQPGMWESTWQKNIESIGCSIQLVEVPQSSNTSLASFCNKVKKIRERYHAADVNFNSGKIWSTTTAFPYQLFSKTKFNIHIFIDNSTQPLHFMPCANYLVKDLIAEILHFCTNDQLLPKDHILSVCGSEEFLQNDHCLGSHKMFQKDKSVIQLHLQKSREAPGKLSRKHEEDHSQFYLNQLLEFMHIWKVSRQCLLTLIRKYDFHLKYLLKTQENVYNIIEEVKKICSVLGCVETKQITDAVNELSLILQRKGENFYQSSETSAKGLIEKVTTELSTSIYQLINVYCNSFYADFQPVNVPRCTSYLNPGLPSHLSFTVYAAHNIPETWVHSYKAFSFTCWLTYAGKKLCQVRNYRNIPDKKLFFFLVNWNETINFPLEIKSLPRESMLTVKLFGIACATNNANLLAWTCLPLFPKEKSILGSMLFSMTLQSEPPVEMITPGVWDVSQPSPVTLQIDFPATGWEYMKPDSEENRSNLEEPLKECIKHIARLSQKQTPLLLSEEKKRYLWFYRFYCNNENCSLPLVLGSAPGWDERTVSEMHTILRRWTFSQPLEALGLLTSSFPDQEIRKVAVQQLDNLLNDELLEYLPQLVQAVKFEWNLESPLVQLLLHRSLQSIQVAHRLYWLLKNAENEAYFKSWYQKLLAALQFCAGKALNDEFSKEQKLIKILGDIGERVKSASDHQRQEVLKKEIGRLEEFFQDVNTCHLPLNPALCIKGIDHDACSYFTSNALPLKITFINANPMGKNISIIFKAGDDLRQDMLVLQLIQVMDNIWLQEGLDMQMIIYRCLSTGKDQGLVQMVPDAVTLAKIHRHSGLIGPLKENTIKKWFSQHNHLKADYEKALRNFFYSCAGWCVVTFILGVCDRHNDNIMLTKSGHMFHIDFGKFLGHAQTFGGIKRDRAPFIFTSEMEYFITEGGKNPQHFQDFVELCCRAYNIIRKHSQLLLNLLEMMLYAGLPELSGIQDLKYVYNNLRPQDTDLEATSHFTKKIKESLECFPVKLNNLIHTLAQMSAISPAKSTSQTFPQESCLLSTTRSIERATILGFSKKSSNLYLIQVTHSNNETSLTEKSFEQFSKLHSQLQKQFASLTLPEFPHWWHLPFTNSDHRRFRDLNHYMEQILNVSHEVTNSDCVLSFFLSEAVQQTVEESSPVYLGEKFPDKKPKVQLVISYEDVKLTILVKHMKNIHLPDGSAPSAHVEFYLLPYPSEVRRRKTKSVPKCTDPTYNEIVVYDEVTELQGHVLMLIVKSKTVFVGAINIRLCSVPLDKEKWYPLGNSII

The next assay concerns the target T5, SAPK4(h) (Homo sapiens, UniProt O15264).
T5 construct: purchased Eurofins (KinaseProfiler)
T5 sequence (O15264 1-365): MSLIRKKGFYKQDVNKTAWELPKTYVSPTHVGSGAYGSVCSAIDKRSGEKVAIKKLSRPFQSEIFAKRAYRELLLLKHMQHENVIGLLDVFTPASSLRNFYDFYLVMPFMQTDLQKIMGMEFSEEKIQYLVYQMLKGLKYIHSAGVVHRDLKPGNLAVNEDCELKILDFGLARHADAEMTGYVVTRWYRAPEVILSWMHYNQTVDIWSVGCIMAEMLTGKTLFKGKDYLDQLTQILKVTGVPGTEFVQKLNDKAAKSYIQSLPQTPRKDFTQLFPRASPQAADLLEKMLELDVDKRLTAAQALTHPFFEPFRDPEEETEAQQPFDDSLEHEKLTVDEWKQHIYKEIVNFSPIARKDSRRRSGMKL

Another assay deals with T6, TAF1L(h) (Homo sapiens, UniProt Q8IZX4).
T6 construct: purchased Eurofins (KinaseProfiler)
T6 sequence (Q8IZX4 whole entry): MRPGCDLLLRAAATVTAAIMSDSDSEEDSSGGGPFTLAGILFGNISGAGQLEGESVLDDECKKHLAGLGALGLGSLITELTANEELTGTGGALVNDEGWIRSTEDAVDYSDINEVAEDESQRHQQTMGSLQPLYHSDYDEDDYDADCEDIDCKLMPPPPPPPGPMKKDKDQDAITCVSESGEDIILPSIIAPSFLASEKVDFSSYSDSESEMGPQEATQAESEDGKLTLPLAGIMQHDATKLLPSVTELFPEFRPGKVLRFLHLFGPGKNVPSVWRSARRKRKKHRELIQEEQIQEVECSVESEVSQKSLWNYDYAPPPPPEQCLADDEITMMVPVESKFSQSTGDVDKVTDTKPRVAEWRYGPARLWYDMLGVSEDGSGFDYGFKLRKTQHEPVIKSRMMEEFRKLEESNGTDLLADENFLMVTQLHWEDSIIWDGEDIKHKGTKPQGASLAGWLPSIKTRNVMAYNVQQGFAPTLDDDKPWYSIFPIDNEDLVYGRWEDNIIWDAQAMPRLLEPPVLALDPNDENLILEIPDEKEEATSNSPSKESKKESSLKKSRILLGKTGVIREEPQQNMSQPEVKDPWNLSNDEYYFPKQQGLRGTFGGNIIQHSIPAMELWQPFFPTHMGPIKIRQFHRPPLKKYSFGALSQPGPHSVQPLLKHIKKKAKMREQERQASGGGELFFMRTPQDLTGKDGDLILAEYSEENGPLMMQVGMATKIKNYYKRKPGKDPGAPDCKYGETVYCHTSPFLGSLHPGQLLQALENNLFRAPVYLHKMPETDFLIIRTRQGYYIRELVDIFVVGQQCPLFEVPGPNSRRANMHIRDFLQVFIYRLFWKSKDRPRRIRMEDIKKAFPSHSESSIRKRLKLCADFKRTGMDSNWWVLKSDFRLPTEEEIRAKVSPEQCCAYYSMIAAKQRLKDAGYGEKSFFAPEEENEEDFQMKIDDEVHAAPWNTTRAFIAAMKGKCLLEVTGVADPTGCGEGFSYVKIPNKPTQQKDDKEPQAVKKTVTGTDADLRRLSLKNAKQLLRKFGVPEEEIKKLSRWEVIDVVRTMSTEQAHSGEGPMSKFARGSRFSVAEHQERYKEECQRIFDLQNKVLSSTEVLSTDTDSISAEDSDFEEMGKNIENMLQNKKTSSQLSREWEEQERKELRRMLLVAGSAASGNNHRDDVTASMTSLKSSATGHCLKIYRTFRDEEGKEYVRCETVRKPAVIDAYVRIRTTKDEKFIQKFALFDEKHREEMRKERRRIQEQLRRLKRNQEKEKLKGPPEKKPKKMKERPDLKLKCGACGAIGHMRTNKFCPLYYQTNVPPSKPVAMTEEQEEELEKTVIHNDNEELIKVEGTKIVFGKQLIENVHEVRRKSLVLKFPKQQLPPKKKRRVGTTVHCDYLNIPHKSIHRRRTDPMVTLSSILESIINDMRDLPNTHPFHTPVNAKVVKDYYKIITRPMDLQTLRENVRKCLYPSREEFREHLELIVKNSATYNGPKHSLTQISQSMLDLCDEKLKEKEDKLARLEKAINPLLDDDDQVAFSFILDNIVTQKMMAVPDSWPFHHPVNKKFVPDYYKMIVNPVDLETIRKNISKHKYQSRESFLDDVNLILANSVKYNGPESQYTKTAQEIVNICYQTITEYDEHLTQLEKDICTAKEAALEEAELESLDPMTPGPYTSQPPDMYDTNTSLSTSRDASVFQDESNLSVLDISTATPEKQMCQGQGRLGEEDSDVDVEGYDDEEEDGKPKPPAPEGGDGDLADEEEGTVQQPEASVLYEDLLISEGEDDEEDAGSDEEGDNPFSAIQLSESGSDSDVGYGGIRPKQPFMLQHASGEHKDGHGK

T1 sequence (P23458 whole entry): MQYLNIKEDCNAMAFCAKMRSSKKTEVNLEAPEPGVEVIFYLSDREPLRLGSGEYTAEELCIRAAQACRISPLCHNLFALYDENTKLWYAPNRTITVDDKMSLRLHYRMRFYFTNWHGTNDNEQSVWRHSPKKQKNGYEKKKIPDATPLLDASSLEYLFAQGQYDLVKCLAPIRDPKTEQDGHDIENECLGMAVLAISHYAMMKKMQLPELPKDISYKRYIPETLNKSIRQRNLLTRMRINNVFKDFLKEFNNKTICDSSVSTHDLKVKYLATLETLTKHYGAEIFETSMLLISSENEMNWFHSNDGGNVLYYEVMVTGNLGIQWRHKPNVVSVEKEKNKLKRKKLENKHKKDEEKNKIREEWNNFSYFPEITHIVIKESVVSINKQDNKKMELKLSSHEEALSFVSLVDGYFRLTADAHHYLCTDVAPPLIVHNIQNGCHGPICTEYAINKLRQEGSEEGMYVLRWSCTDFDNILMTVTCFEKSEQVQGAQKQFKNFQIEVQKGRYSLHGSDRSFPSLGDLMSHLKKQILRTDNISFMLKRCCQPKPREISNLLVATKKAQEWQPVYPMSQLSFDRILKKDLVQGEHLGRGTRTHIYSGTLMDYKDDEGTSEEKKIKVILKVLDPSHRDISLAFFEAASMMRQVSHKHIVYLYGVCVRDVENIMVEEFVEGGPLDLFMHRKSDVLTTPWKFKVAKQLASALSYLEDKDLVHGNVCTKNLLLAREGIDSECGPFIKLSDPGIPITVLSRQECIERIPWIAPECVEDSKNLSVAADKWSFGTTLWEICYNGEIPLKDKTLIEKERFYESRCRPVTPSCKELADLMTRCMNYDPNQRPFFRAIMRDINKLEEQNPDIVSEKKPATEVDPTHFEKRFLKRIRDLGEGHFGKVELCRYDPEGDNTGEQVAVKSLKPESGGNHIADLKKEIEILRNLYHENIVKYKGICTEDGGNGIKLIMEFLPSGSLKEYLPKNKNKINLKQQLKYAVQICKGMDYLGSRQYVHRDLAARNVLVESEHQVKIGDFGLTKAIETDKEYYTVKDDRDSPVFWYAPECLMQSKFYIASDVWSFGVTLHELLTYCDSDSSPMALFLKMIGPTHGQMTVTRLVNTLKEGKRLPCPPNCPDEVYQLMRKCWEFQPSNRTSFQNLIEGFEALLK
T3 sequence (P48736 whole entry): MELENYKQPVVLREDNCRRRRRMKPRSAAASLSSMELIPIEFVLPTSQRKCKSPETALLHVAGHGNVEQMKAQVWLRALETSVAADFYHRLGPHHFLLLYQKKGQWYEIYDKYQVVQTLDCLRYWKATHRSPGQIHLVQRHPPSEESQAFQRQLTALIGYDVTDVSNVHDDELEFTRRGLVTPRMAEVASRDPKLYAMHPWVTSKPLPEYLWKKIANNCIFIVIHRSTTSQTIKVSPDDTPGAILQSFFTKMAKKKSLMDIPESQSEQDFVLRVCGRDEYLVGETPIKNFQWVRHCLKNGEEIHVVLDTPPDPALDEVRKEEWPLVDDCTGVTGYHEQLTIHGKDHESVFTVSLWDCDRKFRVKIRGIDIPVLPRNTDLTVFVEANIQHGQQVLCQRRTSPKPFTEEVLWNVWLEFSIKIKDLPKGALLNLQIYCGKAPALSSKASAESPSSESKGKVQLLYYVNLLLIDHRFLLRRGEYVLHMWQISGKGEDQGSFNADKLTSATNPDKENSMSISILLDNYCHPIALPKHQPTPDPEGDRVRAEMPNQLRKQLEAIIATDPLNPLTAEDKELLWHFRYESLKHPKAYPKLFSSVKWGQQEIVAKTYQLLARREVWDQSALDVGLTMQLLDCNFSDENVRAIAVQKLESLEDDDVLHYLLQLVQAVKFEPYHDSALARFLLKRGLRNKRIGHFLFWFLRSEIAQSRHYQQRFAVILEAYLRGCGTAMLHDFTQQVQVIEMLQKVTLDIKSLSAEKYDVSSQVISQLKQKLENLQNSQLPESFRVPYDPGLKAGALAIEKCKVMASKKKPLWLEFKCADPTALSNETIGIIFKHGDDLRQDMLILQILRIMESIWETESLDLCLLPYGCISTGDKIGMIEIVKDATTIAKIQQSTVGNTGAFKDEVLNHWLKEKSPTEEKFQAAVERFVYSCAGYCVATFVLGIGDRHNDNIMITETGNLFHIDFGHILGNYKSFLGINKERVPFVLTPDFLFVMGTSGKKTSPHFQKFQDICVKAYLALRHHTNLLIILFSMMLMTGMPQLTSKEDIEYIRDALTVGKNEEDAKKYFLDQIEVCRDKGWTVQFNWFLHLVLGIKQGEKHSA
T2 sequence (Q16644 whole entry): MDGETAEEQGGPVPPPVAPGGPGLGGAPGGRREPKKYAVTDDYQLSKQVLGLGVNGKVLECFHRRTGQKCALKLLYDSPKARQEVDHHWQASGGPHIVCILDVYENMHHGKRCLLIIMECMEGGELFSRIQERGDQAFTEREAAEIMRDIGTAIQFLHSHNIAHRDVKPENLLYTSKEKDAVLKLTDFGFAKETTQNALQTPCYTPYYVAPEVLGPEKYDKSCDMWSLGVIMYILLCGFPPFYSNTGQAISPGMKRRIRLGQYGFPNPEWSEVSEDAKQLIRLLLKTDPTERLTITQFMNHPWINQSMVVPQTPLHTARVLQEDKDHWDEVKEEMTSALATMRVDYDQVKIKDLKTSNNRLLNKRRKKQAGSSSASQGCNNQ

With `COc1cc(OC)c(Cl)c(-c2ccc3c(NC(=O)c4ccc(N5CCNC(C)(C)C5)cc4)n[nH]c3n2)c1Cl` [3D185], the inhibition at 0.01 µM on JAK1(h) (10 nM) was 13%; on MAPKAP-K3(h) (10 nM), 8%; on PI3 Kinase (p120γ)(h) (10 nM), 0%; on PI3KC2γ(h) (10 nM), -4%; at SAPK4(h) (10 nM) it was -12%; at TAF1L(h) (10 nM), -4%. Also, the inhibition at 0.1 µM at JAK1(h) (100 nM) is 15%; at MAPKAP-K3(h) (100 nM) it was 17%; on PI3 Kinase (p120γ)(h) (100 nM), 1%; on PI3KC2γ(h) (100 nM), -4%; on SAPK4(h) (100 nM), -8%; on TAF1L(h) (100 nM) it was -9%. The inhibition at 1 µM on JAK1(h) (1000 nM) was 20%; at MAPKAP-K3(h) (1000 nM), 19%; at PI3 Kinase (p120γ)(h) (1000 nM) it was 3%; on PI3KC2γ(h) (1000 nM) it was 1%; on SAPK4(h) (1000 nM), -11%; at TAF1L(h) (1000 nM), -9%.

Source of the values: PMC6704710, “Preclinical evaluation of 3D185, a novel potent inhibitor of FGFR1/2/3 and CSF-1R, in FGFR-dependent and macrophage-dominant cancer models” (Journal of Experimental & Clinical Cancer Research : CR, 2019).
